Laboratory results published in patent publication US6218430A, “Vitamin D3 mimics” (Ligand Pharmaceuticals Incorporated, priority 1998, dated 2001).
“Also recorded” adds a separate entry of the source.

Experiments:
serum DBP = experiment: Serum DBP binding, rat or human serum, species not given; conditions: rat (r) or human (h) serum DBP, not marked (r)/(h); competition with [3H]-25(OH)D3
Experimental: Serum DBP-binding. DPB competition binding assays were performed by a literature method (Dusso et al. 1991). The source of DBP was either human serum (Scantibodies) or rat serum (Gibco-BRL) diluted 1:10,000 in sodium phosphate buffer (pH 7.4). Sera were incubated for 2 h at 4° C. with 2 nM [^3 H]-25(OH)D3 (Amersham) with and withoun unlabeled 25(OH)D3 or 1,25(OH)2D3 (0.01 nM-1 μM), or unlabeled vitamin D mimic compounds (10 nM-10 μM). Bound ligand was separated from unbound ligand with Dextran-coated charcoal in gelatin-phosphate buffer.

HL60 cells = experiment: Leukemic cell differentiation (NBT and CD14); format: cell-based; conditions: Homo sapiens, HL-60, 120 h; NBT and CD14 assays; differentiation into macrophages/monocytes; 5 days
Experimental: Leukemic cell differentiation. […] Ligands were added in ethanol vehicle (1%) at various concentrations for 5 days without changing the media. On the fifth day, cells were harvested and assayed for markers of differentiation. […] Cells that bioreduce the dye turn blue-black and represent differentiated cells, and are counted. Undifferentiated cells are clear and are also counted; percent differentiated cells are then determined from the two numbers.

[1] = tested on: LNCaP prostate cancer cells; experiment: Prostate cancer cell growth inhibition (BrdU); format: cell-based; conditions: Homo sapiens, 96 h, BrdU incorporation, 4-day assay
Experimental: (§1) Cancer cell growth inhibition and analysis. SK-BR-3 human breast cancer cells (ATCC) and LNCaP human prostate cancer cells (ATCC) were plated in 96-well, flat-bottomed microtiter plates (CoStar) with 50 μL serum-containing media/well. […] Cell plating numbers (cells/well) were as follows: SK-BR-3, 3000 (3-day assays); LNCAP, 1000 (4-day assays). Cell plating number was determined by growth rate of each cell line and duration of the assay. […] Cells were allowed to adhere for 24 h prior to compound addition as follows:
(§2) Ten-fold serial dilutions were performed with changing of pipette tips between each dilution. Diluted compounds were then added to the cells (50 μL/well) to final concentrations of 1×10^-5 -1×10^-11 M (1% ethanol) in triplicate. […] BrdU (5-bromo-2'-deoxyuridine) incorporation was analyzed as a measure of DNA replication (Cell Proliferation ELISA kit, Boehringer) and absorbance was measured at 450 nm.
(§3) One row of wells contained media only and these absorbance values were averaged as background and then subtracted from absorbance values from each individual well containing cells. The average values were then determined for each triplicate and plotted vs ligand concentration. The average vehicle (1% ethanol) value was determined, less the background average. […] Potency (EC50) was determined as the concentration of compound that elicited half-maximal response.

[2] = tested on: SK-BR-3 breast cancer cells; experiment: Breast cancer cell growth inhibition (BrdU); format: cell-based; conditions: Homo sapiens, SK-BR-3, 72 h, BrdU incorporation, 3-day assay
Experimental: as §1, §2, §3

[3] = tested on: Normal human epidermal keratinocytes (NHEK); experiment: Keratinocyte growth inhibition (BrdU); format: cell-based; conditions: 96 h, BrdU incorporation, day 4
Experimental: as §2, §3
Keratinocyte growth inhibition. Normal human epidermal keratinocytes (NHEK) were grown according to vendor specifications (Clonetics, San Diego). BrdU assays were performed as above except that cells were plated at 200 cells per well (96-well plates) and fresh media with ligands were added on day 0 and day 2; BrdU assays were run on day 4.

24(OH)ase = experiment: In vivo gene regulation: kidney 24(OH)ase RNA induction (Northern blot); design: species or system mouse (Balb/c mice); conditions: for Relative 24(OH)ase activity: oral gavage, vehicle 1, corrected with GAPDH
Experimental: (§4) In vivo gene regulation and calcium potential. Balb/c mice (male 6-8 weeks old, ~20 g) were fed a vitamin D deficient, calcium replete diet (Purina Mills) for 7-14 days prior to receiving treatment with compounds. Animals were housed under normal lighting. Compounds were administered in sesame oil vehicle with 4% ethanol by oral gavage (0.1 mL dose volume). […] On the final day of dosing, 4-6 h after the final dose, animals were euthanized, the kidneys removed and blood collected. Serum was prepared from the blood and calcium determination performed by colorimetric assay (Sigma). […] 15-20 μg total RNA was utilized in Northern blot analysis using rat 24(OH)ase probe; GAPDH probe was used to normalize for RNA loading, as described previously (Id). Quantitation was by PhosphorImager analysis.

[4] = In vivo calcium potential: serum calcium (colorimetric); design: species or system mouse (Balb/c mice); conditions: oral gavage
Experimental: as §4

LNCaP tumor = experiment: In vivo efficacy: LNCaP tumor growth in nude mice; design: species or system LNCaP human prostate cancer cells in nude mice
Experimental: (§5) In vivo efficacy. Nude mice (6 weeks old) were housed under normal light and fed a vitamin D deficient, calcium replete diet (Purina Mills) for 7-10 days prior to injection with LNCaP cells. Tumors were allowed to grow 2-4 weeks prior to dosing. Compounds or vehicle were administered in sesame oil by oral gavage (0.1 mL dose volume). Dosing was daily for the extent of the study. Tumor measurements were taken on days 10 and 15. Animals were then euthanized, and kidneys and blood retrieved. Serum calcium measurements were taken from the final bleed and an intermediate bleed on day 10. […] Average animal weight change per group was as follows: Vehicle, -7.2%; Compound 4 (3 mg/kg), -2.1%; Compound 4 (10 mg/kg), -8.9%.

[5] = Serum calcium in LNCaP tumor-bearing nude mice; format: in vivo; conditions: 3 mg/kg and 10 mg/kg, days 10 and 15
Experimental: FIGS. 1A and 1B depict the In vivo efficacy of compound 4 in LNCaP tumor growth inhibition in nude mice without hypercalcemia.
as §5

[6] = Animal weight change in LNCaP tumor-bearing nude mice; format: in vivo; conditions: vehicle -7.2%
Experimental: as §5

human VDR [7] = biological target: T1, human VDR (Homo sapiens, UniProt P11473); experiment: biochemical
T1 sequence (P11473 1-427): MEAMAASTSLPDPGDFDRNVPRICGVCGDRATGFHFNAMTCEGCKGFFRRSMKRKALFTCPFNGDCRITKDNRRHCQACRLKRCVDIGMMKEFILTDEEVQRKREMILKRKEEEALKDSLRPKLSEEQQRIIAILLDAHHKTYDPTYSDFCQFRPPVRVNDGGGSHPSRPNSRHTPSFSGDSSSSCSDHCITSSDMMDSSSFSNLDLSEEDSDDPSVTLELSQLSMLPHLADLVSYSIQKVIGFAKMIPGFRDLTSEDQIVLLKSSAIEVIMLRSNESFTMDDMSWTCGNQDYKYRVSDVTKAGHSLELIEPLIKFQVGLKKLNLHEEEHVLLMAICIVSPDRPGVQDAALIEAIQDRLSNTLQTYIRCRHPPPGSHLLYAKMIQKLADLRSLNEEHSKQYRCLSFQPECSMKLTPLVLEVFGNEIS
Experimental: VDR binding. […] Cell extracts from yeast transformants were prepared and full length VDR expression was confirmed by Western blotting. […] Binding buffer contained 10 mM Tris,pH 7.5, 1 mM DTT, and 0.4 M KCl; wash buffer contained 10 mM Tris, 100 mM KCl, and 10 mM CHAPS detergent.

human VDR [8] = biological target: T1, human VDR; experiment: Cotransactivation (CTF) in Hep G2 cells, VDRE-luciferase reporter; format: cell-based; design: expressed in transfected cells; host or cells: Hep G2 (human hepatoma, ATCC)
Experimental: Cotransactivation properties. […] Reporter and receptor containing vectors were transfected along with carrier DNA and β-galactosidase internal control plasmid as previously described except that Hep G2 cells were used (Id). Briefly, transfections were performed in triplicate in 96-well gelatin-coated plates with a total of 20 μg/mL DNA (0.5 μg receptor expression vector, 5 μg reported plasmid, 5 μg β-galactosidase plasmid, and pGEM carrier DNA to 20 μg) of calcium phosphate-HEPES transfection solution. […] Luciferase values were normalized with β-galactosidase values to control for variable transfection efficiencies.

Cc1cc(C2(c3ccc(OCC(=O)C(C)(C)C)c(C)c3)CCCCC2)ccc1OCC(=O)C(C)(C)C [Compound 4, 1,1-bis[3-methyl-4-(3,3-dimethyl-2-oxobutoxy)phenyl]cyclohexane]
IC50 (serum DBP): > 10000 nM
EC50 (HL60 cells): 2000 nM
EC50 [1]: 2000 nM
EC50 [2]: 2000 nM
EC50 [3]: 500 nM
Ratio 24(OH)ase/Ca2+ (24(OH)ase; 3-day treatment, 10 mg/kg): 1.48
Ratio 24(OH)ase/Ca2+ increase (24(OH)ase; 3-day treatment, 10 mg/kg): 16.9
Relative 24(OH)ase activity (24(OH)ase; 3-day treatment, 10 mg/kg): 13.5
Ratio 24(OH)ase/Ca2+ (24(OH)ase; 3-day treatment, 30 mg/kg): 1.18
Ratio 24(OH)ase/Ca2+ increase (24(OH)ase; 3-day treatment, 30 mg/kg): 15.1
Relative 24(OH)ase activity (24(OH)ase; 3-day treatment, 30 mg/kg): 10.6
Ratio 24(OH)ase/Ca2+ (24(OH)ase; 5-day treatment, 10 mg/kg): 3.38
Ratio 24(OH)ase/Ca2+ increase (24(OH)ase; 5-day treatment, 10 mg/kg): 61.6
Relative 24(OH)ase activity (24(OH)ase; 5-day treatment, 10 mg/kg): 30.8
Ratio 24(OH)ase/Ca2+ (24(OH)ase; 5-day treatment, 30 mg/kg): 5.31
Ratio 24(OH)ase/Ca2+ increase (24(OH)ase; 5-day treatment, 30 mg/kg): 35.8
Relative 24(OH)ase activity (24(OH)ase; 5-day treatment, 30 mg/kg): 53.7
separation of target gene induction from serum calcium (24(OH)ase; mice, vs 1,25(OH)2 D3): greater separation of these effects for 4 than for 1,25(OH)2 D3; also recorded: good separation of target gene regulation from serum calcium elevation
Serum Ca2+ ([4]; 3-day treatment, 10 mg/kg): 9.1 ± 0.5 mg/dL
Serum Ca2+ ([4]; 3-day treatment, 30 mg/kg): 9.0 ± 0.6 mg/dL
Serum Ca2+ ([4]; 5-day treatment, 10 mg/kg): 9.1 ± 0.2 mg/dL
Serum Ca2+ ([4]; 5-day treatment, 30 mg/kg): 10.1 ± 0.5 mg/dL
tumor growth rate vs control group (LNCaP tumor; 3 mg/kg and 10 mg/kg oral gavage daily): decreased tumor growth rates as compared to the control group
tumor size vs vehicle (FIG. 1A) (LNCaP tumor; 10 and 15 days post dosing): smaller
serum calcium levels / hypercalcemia (FIG. 1B) [5]: hypercalcemia was not observed; also recorded: normal serum calcium levels
Average animal weight change per group ([6]; 3 mg/kg): -2.1%
Average animal weight change per group ([6]; 10 mg/kg): -8.9%
Ki (human VDR [7]): > 10000 nM
EC50 (human VDR [8]): 2200 nM
